In PubChem BioAssay (NCI):
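Test compounds were applied to cells in 96-well plates for 48 hours at 5 doses. TGI marks complete inhibition of growth.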

Legend:
Experiment in all cases: NCI tumour cell line growth inhibition, 48 h
MOLT-4 leukemia = tested on: MOLT-4 leukemia
T-47D breast = tested on: T-47D breast
SNB-75 CNS = tested on: SNB-75 CNS
OVCAR-5 ovarian = tested on: OVCAR-5 ovarian
SF-295 CNS = tested on: SF-295 CNS
SNB-19 CNS = tested on: SNB-19 CNS
HOP-92 NSCLC = tested on: HOP-92 NSCLC
SW-620 colon = tested on: SW-620 colon
K-562 leukemia = tested on: K-562 leukemia
ACHN renal = tested on: ACHN renal
MCF7 breast = tested on: MCF7 breast
NCI-H226 lung = tested on: NCI-H226 lung
LOX IMVI melanoma = tested on: LOX IMVI melanoma
HL-60(TB) leukemia = tested on: HL-60(TB) leukemia
RXF 393 renal = tested on: RXF 393 renal
CAKI-1 renal = tested on: CAKI-1 renal
MDA-N = tested on: MDA-N
SK-MEL-28 melanoma = tested on: SK-MEL-28 melanoma
BT-549 breast = tested on: BT-549 breast
UACC-257 melanoma = tested on: UACC-257 melanoma
NCI-H23 lung = tested on: NCI-H23 lung
MALME-3M melanoma = tested on: MALME-3M melanoma
HOP-62 NSCLC = tested on: HOP-62 NSCLC
MDA-MB-231 breast = tested on: MDA-MB-231 breast
OVCAR-4 ovarian = tested on: OVCAR-4 ovarian
M14 melanoma = tested on: M14 melanoma
DU-145 prostate = tested on: DU-145 prostate
COLO 205 colon = tested on: COLO 205 colon
NCI-H522 lung = tested on: NCI-H522 lung
SF-539 CNS = tested on: SF-539 CNS
PC-3 prostate = tested on: PC-3 prostate
HCC-2998 colon = tested on: HCC-2998 colon
A549 NSCLC = tested on: A549 NSCLC
IGROV1 ovarian = tested on: IGROV1 ovarian
TK-10 renal = tested on: TK-10 renal
OVCAR-8 ovarian = tested on: OVCAR-8 ovarian
NCI-H460 lung = tested on: NCI-H460 lung
RPMI-8226 leukemia = tested on: RPMI-8226 leukemia
HCT-15 colon = tested on: HCT-15 colon
OVCAR-3 ovarian = tested on: OVCAR-3 ovarian
HT29 colon = tested on: HT29 colon
SN12C renal = tested on: SN12C renal
NCI/ADR-RES ovarian = tested on: NCI/ADR-RES ovarian
SF-268 CNS = tested on: SF-268 CNS
U251 CNS = tested on: U251 CNS
A498 renal = tested on: A498 renal
EKVX NSCLC = tested on: EKVX NSCLC
SK-OV-3 ovarian = tested on: SK-OV-3 ovarian
SK-MEL-2 melanoma = tested on: SK-MEL-2 melanoma
HCT-116 colon = tested on: HCT-116 colon
CCRF-CEM leukemia = tested on: CCRF-CEM leukemia
KM12 colon = tested on: KM12 colon
786-0 renal = tested on: 786-0 renal
MDA-MB-435 = tested on: MDA-MB-435
UACC-62 melanoma = tested on: UACC-62 melanoma
SK-MEL-5 melanoma = tested on: SK-MEL-5 melanoma
SR leukemia = tested on: SR leukemia

Question: Which TGI (MOLT-4 leukemia) does the source give for `COc1cc(C)c(/C=C2/N=C(c3ccccc3)OC2=O)c([N+](=O)[O-])c1OC` here?
Answer: > 100 µM

Question: And the TGI (T-47D breast)?
Answer: > 100 µM

Question: And the TGI (SNB-75 CNS)?
Answer: > 100 µM

Question: What about the TGI (OVCAR-5 ovarian) of the same compound?
Answer: > 100 µM

Question: What about the TGI (SF-295 CNS) of the same compound?
Answer: > 100 µM

Question: What about the TGI (SNB-19 CNS) of the same compound?
Answer: > 100 µM

Question: What about the TGI (HOP-92 NSCLC) of the same compound?
Answer: > 100 µM

Question: What about the TGI (SW-620 colon) of the same compound?
Answer: > 100 µM

Question: What about the TGI (K-562 leukemia) of the same compound?
Answer: > 100 µM

Question: What about the TGI (ACHN renal) of the same compound?
Answer: > 100 µM

Question: And the TGI (MCF7 breast)?
Answer: > 100 µM

Question: And the TGI (NCI-H226 lung)?
Answer: > 100 µM

Question: And the TGI (LOX IMVI melanoma)?
Answer: > 100 µM

Question: What about the TGI (HL-60(TB) leukemia) of the same compound?
Answer: > 100 µM

Question: And the TGI (RXF 393 renal)?
Answer: > 100 µM

Question: What about the TGI (CAKI-1 renal) of the same compound?
Answer: > 100 µM

Question: And the TGI (MDA-N)?
Answer: > 100 µM

Question: And the TGI (SK-MEL-28 melanoma)?
Answer: > 100 µM

Question: What about the TGI (BT-549 breast) of the same compound?
Answer: > 100 µM

Question: What about the TGI (UACC-257 melanoma) of the same compound?
Answer: > 100 µM

Question: What about the TGI (NCI-H23 lung) of the same compound?
Answer: > 100 µM

Question: And the TGI (MALME-3M melanoma)?
Answer: > 100 µM

Question: And the TGI (HOP-62 NSCLC)?
Answer: > 100 µM

Question: And the TGI (MDA-MB-231 breast)?
Answer: > 100 µM

Question: And the TGI (OVCAR-4 ovarian)?
Answer: > 100 µM

Question: And the TGI (M14 melanoma)?
Answer: > 100 µM

Question: And the TGI (DU-145 prostate)?
Answer: > 100 µM

Question: What about the TGI (COLO 205 colon) of the same compound?
Answer: > 100 µM

Question: And the TGI (NCI-H522 lung)?
Answer: > 100 µM

Question: What about the TGI (SF-539 CNS) of the same compound?
Answer: > 100 µM

Question: What about the TGI (PC-3 prostate) of the same compound?
Answer: > 100 µM

Question: What about the TGI (HCC-2998 colon) of the same compound?
Answer: > 100 µM

Question: What about the TGI (A549 NSCLC) of the same compound?
Answer: > 100 µM

Question: And the TGI (IGROV1 ovarian)?
Answer: > 100 µM

Question: And the TGI (TK-10 renal)?
Answer: > 100 µM

Question: What about the TGI (OVCAR-8 ovarian) of the same compound?
Answer: > 100 µM

Question: And the TGI (NCI-H460 lung)?
Answer: > 100 µM

Question: What about the TGI (RPMI-8226 leukemia) of the same compound?
Answer: > 100 µM

Question: What about the TGI (HCT-15 colon) of the same compound?
Answer: > 100 µM

Question: What about the TGI (OVCAR-3 ovarian) of the same compound?
Answer: > 100 µM

Question: What about the TGI (HT29 colon) of the same compound?
Answer: > 100 µM

Question: What about the TGI (SN12C renal) of the same compound?
Answer: > 100 µM

Question: And the TGI (NCI/ADR-RES ovarian)?
Answer: > 100 µM

Question: What about the TGI (SF-268 CNS) of the same compound?
Answer: > 100 µM

Question: And the TGI (U251 CNS)?
Answer: > 100 µM

Question: What about the TGI (A498 renal) of the same compound?
Answer: > 100 µM

Question: And the TGI (EKVX NSCLC)?
Answer: > 100 µM

Question: And the TGI (SK-OV-3 ovarian)?
Answer: > 100 µM

Question: What about the TGI (SK-MEL-2 melanoma) of the same compound?
Answer: > 100 µM

Question: And the TGI (HCT-116 colon)?
Answer: > 100 µM

Question: And the TGI (CCRF-CEM leukemia)?
Answer: > 100 µM

Question: And the TGI (KM12 colon)?
Answer: > 100 µM

Question: What about the TGI (786-0 renal) of the same compound?
Answer: > 100 µM

Question: What about the TGI (MDA-MB-435) of the same compound?
Answer: > 100 µM

Question: What about the TGI (UACC-62 melanoma) of the same compound?
Answer: > 100 µM

Question: `Clc1cccc(-c2sc(-c3ccsc3)cc2Cc2ccsc2)c1` was tested. Which TGI (MOLT-4 leukemia) did it give?
Answer: > 10 µM

Question: What about the TGI (T-47D breast) of the same compound?
Answer: > 10 µM

Question: What about the TGI (SNB-75 CNS) of the same compound?
Answer: > 10 µM

Question: And the TGI (SF-295 CNS)?
Answer: > 10 µM

Question: And the TGI (HOP-92 NSCLC)?
Answer: > 10 µM

Question: And the TGI (SW-620 colon)?
Answer: > 10 µM

Question: And the TGI (K-562 leukemia)?
Answer: > 10 µM

Question: What about the TGI (MCF7 breast) of the same compound?
Answer: > 10 µM

Question: And the TGI (LOX IMVI melanoma)?
Answer: > 10 µM

Question: And the TGI (HL-60(TB) leukemia)?
Answer: > 10 µM

Question: And the TGI (RXF 393 renal)?
Answer: > 10 µM

Question: And the TGI (CAKI-1 renal)?
Answer: > 10 µM

Question: What about the TGI (MDA-N) of the same compound?
Answer: > 10 µM

Question: And the TGI (SK-MEL-28 melanoma)?
Answer: > 10 µM

Question: And the TGI (UACC-257 melanoma)?
Answer: > 10 µM

Question: What about the TGI (NCI-H23 lung) of the same compound?
Answer: > 10 µM

Question: And the TGI (MALME-3M melanoma)?
Answer: > 10 µM

Question: What about the TGI (HOP-62 NSCLC) of the same compound?
Answer: > 10 µM

Question: And the TGI (MDA-MB-231 breast)?
Answer: > 10 µM

Question: And the TGI (OVCAR-4 ovarian)?
Answer: > 10 µM

Question: What about the TGI (M14 melanoma) of the same compound?
Answer: > 10 µM

Question: What about the TGI (DU-145 prostate) of the same compound?
Answer: > 10 µM

Question: What about the TGI (COLO 205 colon) of the same compound?
Answer: > 10 µM

Question: What about the TGI (PC-3 prostate) of the same compound?
Answer: > 10 µM

Question: And the TGI (HCC-2998 colon)?
Answer: > 10 µM

Question: What about the TGI (A549 NSCLC) of the same compound?
Answer: > 10 µM

Question: And the TGI (SK-MEL-5 melanoma)?
Answer: > 10 µM

Question: And the TGI (IGROV1 ovarian)?
Answer: > 10 µM

Question: What about the TGI (TK-10 renal) of the same compound?
Answer: > 10 µM

Question: And the TGI (SR leukemia)?
Answer: > 10 µM

Question: And the TGI (OVCAR-8 ovarian)?
Answer: > 10 µM

Question: And the TGI (RPMI-8226 leukemia)?
Answer: > 10 µM

Question: And the TGI (HCT-15 colon)?
Answer: > 10 µM

Question: And the TGI (HT29 colon)?
Answer: > 10 µM

Question: And the TGI (SN12C renal)?
Answer: > 10 µM

Question: What about the TGI (SF-268 CNS) of the same compound?
Answer: > 10 µM

Question: And the TGI (EKVX NSCLC)?
Answer: > 10 µM

Question: And the TGI (SK-OV-3 ovarian)?
Answer: > 10 µM

Question: What about the TGI (CCRF-CEM leukemia) of the same compound?
Answer: > 10 µM

Question: What about the TGI (KM12 colon) of the same compound?
Answer: > 10 µM

Question: And the TGI (786-0 renal)?
Answer: > 10 µM

Question: And the TGI (MDA-MB-435)?
Answer: > 10 µM

Question: And the TGI (UACC-62 melanoma)?
Answer: > 10 µM
